These are literature values, as cited in patent US20180015074A1, “USE OF MTOR INHIBITORS TO PREVENT AND REGRESS EDHESIONS AND FIBROSIS” (THE BOARD OF REGENTS OF THE UNIVERSITY OF TEXAS SYSTEM, priority 2015, published 2018).

Like-named read-outs stand apart in the source and are kept apart here.

For data set [1], the system named is wound strength in the intestine and abdominal fascia.
For another data set, the system named is post-surgical adhesions. Conditions: daily IP injection immediately following surgery, rat.

As for `CO[C@H]1C[C@@H]2CC[C@@H](C)[C@@](O)(O2)C(=O)C(=O)N2CCCC[C@H]2C(=O)O[C@H]([C@H](C)C[C@@H]2CC[C@@H](O)[C@H](OC)C2)CC(=O)[C@H](C)/C=C(\C)[C@@H](O)[C@@H](OC)C(=O)[C@H](C)C[C@H](C)/C=C/C=C/C=C/1C` [rapamycin, (3S,6R,7E,9R,10R,12R,14S,15E,17E,19E,21S,23S,26R,27R,34aS)-9,10,12,13,14,-21,22,23,24,25,26,27,32,33,34,34a-hexadecahydro-9,27-dihydroxy-3-[(1R)-2-[-(1S,3R,4R)-4-hydroxy-3-methoxycyclohexyl]-1-methylethyl]-10,21-dimethoxy-6,8,12,14,20,26-hexamethyl-23,27-epoxy-3H-pyrido[2,1-c][1,4]oxaazacyclohent-ria-contine-1,5,11,28,29(4H,6H,31H)-pentone], the wound strength result in data set [1] (administration delayed 2-4 days post-surgery) is recorded as “ameliorated this loss”; in data set [1] (administration immediately following surgery) it was “serious loss of wound strength”. In the data set on post-surgical adhesions, the wound infections entry was “higher rate of wound infections”.
